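Protocol summary: plate cells (96-well), add compound at 5 concentrations, incubate 48 h, interpolate endpoints linearly. The concentration for 50% growth inhibition is given as GI50.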 Active and inactive are the calls of the source. No stated cut-off is given here; in the data, active = GI50 up to about 1.1 µM and inactive = higher.
Columns and labels:
Experiment in all cases: NCI tumour cell line growth inhibition, 48 h
RPMI-8226 = tested on: RPMI-8226
HOP-18 = tested on: HOP-18
CCRF-CEM = tested on: CCRF-CEM
DMS-114 = tested on: DMS-114
ACHN = tested on: ACHN
LOX IMVI = tested on: LOX IMVI
A498 = tested on: A498
COLO 205 = tested on: COLO 205
U-251 = tested on: U-251
UACC-62 = tested on: UACC-62
HOP-92 = tested on: HOP-92
M19-MEL = tested on: M19-MEL
SK-MEL-28 = tested on: SK-MEL-28
HCT-15 = tested on: HCT-15
NCI-H23 = tested on: NCI-H23
OVCAR-4 = tested on: OVCAR-4
MOLT-4 = tested on: MOLT-4
KM-20L2 = tested on: KM-20L2
NCI-H460 = tested on: NCI-H460
RXF 393 = tested on: RXF 393
K562 = tested on: K562
HL-60 = tested on: HL-60
SNB-78 = tested on: SNB-78
SF-539 = tested on: SF-539
RXF 631 = tested on: RXF 631
M14 = tested on: M14
SN12C = tested on: SN12C
XF498 = tested on: XF498
DMS-273 = tested on: DMS-273
IGROV-1 = tested on: IGROV-1
SK-OV-3 = tested on: SK-OV-3
LXFL 529 = tested on: LXFL 529
SNB-19 = tested on: SNB-19
HCT-116 = tested on: HCT-116
UO-31 = tested on: UO-31
786-0 = tested on: 786-0
EKVX = tested on: EKVX
SK-MEL-2 = tested on: SK-MEL-2
SNB-75 = tested on: SNB-75
OVCAR-5 = tested on: OVCAR-5
TK-10 = tested on: TK-10
HCC 2998 = tested on: HCC 2998
SK-MEL-5 = tested on: SK-MEL-5
HT-29 = tested on: HT-29
KM12 = tested on: KM12
UACC-257 = tested on: UACC-257
OVCAR-8 = tested on: OVCAR-8
SW-620 = tested on: SW-620
SF-295 = tested on: SF-295
CAKI-1 = tested on: CAKI-1
SF-268 = tested on: SF-268
NCI-H522 = tested on: NCI-H522
OVCAR-3 = tested on: OVCAR-3
HOP-62 = tested on: HOP-62
A549 = tested on: A549
DLD-1 = tested on: DLD-1
Malme-3M = tested on: Malme-3M
NCI-H226 = tested on: NCI-H226
SR = tested on: SR
Hs-578T = tested on: Hs-578T
DU-145 = tested on: DU-145
MDA-MB-231 = tested on: MDA-MB-231
T47D = tested on: T47D
PC-3 = tested on: PC-3
MDA-N = tested on: MDA-N
MDA-MB-435 = tested on: MDA-MB-435
MCF7 = tested on: MCF7
BT-549 = tested on: BT-549
NCI/ADR-RES = tested on: NCI/ADR-RES

Measured: GI50

O=C(O)CCC1CCc2cccc(O)c2C1=O (configuration not stated)
inactive: RPMI-8226 > 100 µM | HOP-18 > 100 µM | CCRF-CEM > 100 µM | DMS-114 > 100 µM | ACHN > 100 µM | LOX IMVI > 100 µM | A498 > 100 µM | COLO 205 > 100 µM | U-251 > 100 µM | UACC-62 > 100 µM | HOP-92 > 100 µM | M19-MEL > 100 µM | SK-MEL-28 > 100 µM | NCI-H23 > 100 µM | OVCAR-4 > 100 µM | MOLT-4 > 100 µM | KM-20L2 > 100 µM | NCI-H460 > 100 µM | RXF 393 > 100 µM | K562 > 100 µM | HL-60 > 100 µM | SNB-78 > 100 µM | SF-539 > 100 µM | RXF 631 > 100 µM | M14 > 100 µM | SN12C > 100 µM | XF498 > 100 µM | DMS-273 > 100 µM | IGROV-1 > 100 µM | SK-OV-3 > 100 µM | LXFL 529 > 100 µM | SNB-19 > 100 µM
> 100 µM: HCT-15

CN(C)/C(N)=N\C#N
inactive: HCT-116 > 100 µM | RPMI-8226 64.7 µM | UO-31 > 100 µM | HOP-18 > 100 µM | 786-0 > 100 µM | EKVX > 100 µM | DMS-114 93.8 µM | ACHN > 100 µM | SK-MEL-2 > 100 µM | SNB-75 > 100 µM | A498 > 100 µM | COLO 205 59.4 µM | OVCAR-5 > 100 µM | U-251 > 100 µM | TK-10 > 100 µM | UACC-62 > 100 µM | HOP-92 > 100 µM | M19-MEL 83.6 µM | HCC 2998 > 100 µM | SK-MEL-5 > 100 µM | SK-MEL-28 > 100 µM | NCI-H23 > 100 µM | HT-29 > 100 µM | OVCAR-4 > 100 µM | KM12 > 100 µM | UACC-257 > 100 µM | MOLT-4 > 100 µM | OVCAR-8 > 100 µM | KM-20L2 > 100 µM | SW-620 21 µM | NCI-H460 > 100 µM | RXF 393 17.5 µM | K562 > 100 µM | SF-295 > 100 µM | CAKI-1 > 100 µM | SF-268 > 100 µM | HL-60 > 100 µM | SNB-78 > 100 µM | NCI-H522 > 100 µM | OVCAR-3 > 100 µM | SF-539 > 100 µM | HOP-62 > 100 µM | RXF 631 > 100 µM | A549 > 100 µM | DLD-1 48.9 µM | M14 > 100 µM | Malme-3M > 100 µM | SN12C > 100 µM | DMS-273 > 100 µM | IGROV-1 > 100 µM | SK-OV-3 > 100 µM | LXFL 529 > 100 µM | NCI-H226 > 100 µM | SNB-19 > 100 µM
18.9 µM: HCT-15

CC(=O)Oc1cc(C)c2c(c1OC(C)=O)CC1(O2)[C@@H](C)CCC2[C@@]3(C)CC[C@H](OC(C)=O)C(C)(C)C3CC[C@]21C (some centres not stated)
3.53 µM: HCT-15
inactive: HCT-116 4.19 µM | SR 3.03 µM | RPMI-8226 3.83 µM | UO-31 1.99 µM | HOP-18 2.64 µM | 786-0 2.28 µM | EKVX 3.69 µM | DMS-114 2.29 µM | ACHN 1.67 µM | SNB-75 3.57 µM | LOX IMVI 4.24 µM | A498 7.46 µM | COLO 205 1.63 µM | OVCAR-5 5.46 µM | U-251 3.33 µM | TK-10 3.61 µM | UACC-62 2.46 µM | HOP-92 3.14 µM | M19-MEL 2.02 µM | HCC 2998 5.42 µM | SK-MEL-5 3.1 µM | SK-MEL-28 4.41 µM | NCI-H23 2.19 µM | HT-29 5.43 µM | OVCAR-4 > 10 µM | KM12 5.13 µM | UACC-257 5.97 µM | MOLT-4 4.57 µM | OVCAR-8 3.01 µM | KM-20L2 14.1 µM | SW-620 2.82 µM | NCI-H460 3.45 µM | RXF 393 1.26 µM | SF-295 5.01 µM | CAKI-1 2.2 µM | SF-268 3.37 µM | SNB-78 2.24 µM | OVCAR-3 2.72 µM | SF-539 2.81 µM | HOP-62 2.65 µM | RXF 631 5.4 µM | A549 5.3 µM | DLD-1 3.42 µM | M14 6.08 µM | Malme-3M 2.86 µM | SN12C 2.98 µM | DMS-273 2.25 µM | IGROV-1 2.01 µM | SK-OV-3 5.36 µM | LXFL 529 4.62 µM | NCI-H226 11.4 µM | SNB-19 7.31 µM

O=C1C(NCCO)=C(N2CC2)C(=O)C(NCCO)=C1N1CC1
inactive: HCT-116 29.6 µM | SR 16.8 µM | Hs-578T > 100 µM | RPMI-8226 44.6 µM | DU-145 > 77.3 µM | MDA-MB-231 > 90.4 µM | UO-31 51.9 µM | T47D > 69.2 µM | HOP-18 > 100 µM | 786-0 24.4 µM | CCRF-CEM 17.9 µM | EKVX > 81.1 µM | DMS-114 19.5 µM | ACHN 30.8 µM | SK-MEL-2 > 58.3 µM | SNB-75 63.8 µM | LOX IMVI 17.1 µM | A498 > 100 µM | COLO 205 > 67.6 µM | OVCAR-5 58.2 µM | U-251 31.5 µM | TK-10 > 100 µM | PC-3 > 100 µM | UACC-62 25.1 µM | HOP-92 > 73.1 µM | M19-MEL 28.5 µM | HCC 2998 > 100 µM | MDA-N > 60.4 µM | SK-MEL-5 50 µM | SK-MEL-28 > 100 µM | MDA-MB-435 > 100 µM | MCF7 > 100 µM | NCI-H23 29.2 µM | HT-29 49 µM | OVCAR-4 > 57.4 µM | KM12 74.5 µM | UACC-257 > 74.3 µM | MOLT-4 12.2 µM | OVCAR-8 37.1 µM | KM-20L2 > 100 µM | SW-620 46.8 µM | BT-549 > 69 µM | NCI-H460 10.2 µM | RXF 393 71.3 µM | K562 39.5 µM | SF-295 26.5 µM | CAKI-1 85.9 µM | SF-268 30.8 µM | HL-60 13.2 µM | SNB-78 > 100 µM | NCI-H522 31.3 µM | OVCAR-3 33.7 µM | SF-539 39.4 µM | HOP-62 27.4 µM | A549 44.5 µM | DLD-1 > 46.2 µM | M14 47.3 µM | Malme-3M > 100 µM | SN12C 26.5 µM | XF498 53.3 µM | DMS-273 5.46 µM | IGROV-1 > 97.5 µM | SK-OV-3 > 70.6 µM | LXFL 529 > 51.6 µM | NCI-H226 57.5 µM | SNB-19 60.7 µM | NCI/ADR-RES > 100 µM
57.5 µM: HCT-15

C[C@]12C=CC(=O)C=C1CC[C@H]1[C@@H]3C[C@@H](O)[C@](O)(C(=O)CO)[C@@]3(C)C[C@H](O)[C@@]12F [TRIAMCINOLONE]
inactive: HCT-116 > 100 µM | SR > 100 µM | RPMI-8226 11 µM | UO-31 > 100 µM | 786-0 > 100 µM | CCRF-CEM 1.4 µM | EKVX > 100 µM | DMS-114 > 100 µM | ACHN > 100 µM | SK-MEL-2 > 100 µM | SNB-75 > 100 µM | LOX IMVI > 100 µM | A498 > 100 µM | COLO 205 > 100 µM | OVCAR-5 > 100 µM | U-251 > 100 µM | TK-10 > 100 µM | UACC-62 > 100 µM | HOP-92 > 100 µM | M19-MEL > 100 µM | HCC 2998 > 100 µM | SK-MEL-5 > 100 µM | SK-MEL-28 > 100 µM | NCI-H23 > 100 µM | HT-29 > 100 µM | OVCAR-4 > 100 µM | KM12 > 100 µM | UACC-257 > 100 µM | MOLT-4 > 100 µM | OVCAR-8 > 100 µM | KM-20L2 > 100 µM | SW-620 > 100 µM | NCI-H460 > 100 µM | RXF 393 > 100 µM | K562 > 100 µM | SF-295 > 100 µM | CAKI-1 > 100 µM | SF-268 > 100 µM | HL-60 > 100 µM | SNB-78 > 100 µM | NCI-H522 > 100 µM | OVCAR-3 > 100 µM | SF-539 > 100 µM | HOP-62 > 100 µM | RXF 631 > 100 µM | A549 > 100 µM | DLD-1 > 100 µM | M14 > 100 µM | Malme-3M > 100 µM | SN12C > 100 µM | XF498 > 100 µM | DMS-273 > 100 µM | IGROV-1 > 100 µM | SK-OV-3 > 100 µM | LXFL 529 > 100 µM | NCI-H226 > 100 µM | SNB-19 > 100 µM
> 100 µM: HCT-15
